Source: patent US11739053B2, “P62-ZZ chemical inhibitor” (ID4PHARMA, LLC, priority 2011, dated 2023)

Key:
[1] = tested on: Primary human stromal cells; assay: Stromal cell growth, MTT assay; type: cell-based
Procedure: (§1) FIG. 4A-C: 4A. Effect of p62-ZZ inhibitor #3 on myeloma cell growth. MM cell growth was assayed by MTT assay. Data are shown as mean±SD (n=5). FIG. 4B. MTT assay of CD138(+) primary myeloma cells. Data are shown as mean±SD (n=5). FIG. 4C. Effects of p62-ZZ inhibitors on human stromal cell growth. Primary human stromal cells (5×10^3/well) were cultured with 10 μM of p62-ZZ inhibitor (#1-6) containing 10% FCS in IMDM for 48 hours. Stromal cells growth was assayed by MTT assay. Data are shown as the mean±SD (n=5). *P<0.01 compared to vehicle treated culture. MM1.S (3×10^5 cells/well) or CD138 (+) (1×10^5 cells/well) primary myeloma cells were incubated in 96-well plates in the presence of RPMI-1640-10% FCS and various concentrations of p62-ZZ inhibitor #3 at 37° C. 5% CO2 for 48 h to determine the IC50 for inhibiting myeloma cell proliferation.

[2] = tested on: phospho-PKCζ; assay: TNF-α induced PKCζ phosphorylation in marrow stromal cells, Western blot; type: cell-based, human or mouse; conditions: pre-treated 3 hours, 10 ng/ml TNF-α 5 min
Procedure: FIG. 6. The effect of p62-ZZ Inhibitors on phospho-PKCζ activation by TNFα stimulated MM patient and mouse marrow stromal cells. For assay of phospho-PKCz, cells were stimulated with 10 ng/ml of TNFα for 5 min and cell lysates were collected. The phospho PKCζ was assayed by Western blot using anti-phospho PKCz anti-body (Cell Signaling). Phospho-PKCζ is an unique downstream signal activated by interactions with the p62-ZZ domain. Therefore, we examined whether p62-ZZ inhibitor #3 blocked its phosphorylation. Marrow stromal cells derived from patients with multiple myeloma or mouse stromal cells were cultured in 10% FBS IMDM and then pre-treated with various p62-ZZ inhibitors for 3 hours. For assay of phospho-PKCζ, cells were stimulated with 10 ng/ml of TNF-a for 5 min and the cell lysates were collected. Phospho PKCζ was assayed by Western blot using an anti-phospho PKCζ anti-body (Cell Signaling). TNF-α induced PKCζ phosphorylation in stromal cells was blocked when the cells were pre-treated with p62-ZZ inhibitor #3 for 3 hours.

[3] = tested on: IL-6 production; assay: TNF-α induced IL-6 production by marrow stromal cells, ELISA; type: cell-based, human
Procedure: FIG. 5A-B: 5A. VCAM-1 expression using Western blot analysis. Normal human stromal cells were cultured with/without TNF and p62-ZZ inhibitors (#1-6) for 48 hours. The cell lysates were collected and VCAM-1 expression was measured using an anti-VCAM-1 antibody (Santa Cruz). FIG. 5B. IL-6 production by human and mouse marrow stromal cells by ELISA. Normal human and mouse marrow stromal cells were cultured with/without TNFα and p62-ZZ inhibitors (#1-6) for 48 hours. The cell culture media were collected and IL-6 production measured using an IL-6 ELISA kit (R &D). Data are shown as the means (n=2).
Normal human or mouse marrow stromal cells were maintained in 10% FBS-IMDM and treated with p62-ZZ inhibitors (#1-6) for 3 hours. Then TNFα or vehicle was added for 48 hours. Cell lysates were collected and VCAM-1 expression measured by Western blot using an anti-VCAM-1 antibody (Santa Cruz). The culture media were collected and IL-6 production was measured using an IL-6 ELISA kit (R&D Company).

[4] = in vivo; conditions: mouse, iv
Procedure: (§2) FIG. 10A-D: 10A. Single dose acute toxicity study by Up/Down Methods. Body weights of the mice following dosing. FIG. 10B. Mean body weights of mice during multidose MTD study. Data are shown as mean±SD for 5 mice. FIG. 10C. Median body weight of mice during multidose MTD study. FIG. 10D. Plasma concentrations p62-ZZ antagonist in pilot mice after 100 mg/kg IV.
(§3) Preliminary in vivo studies of the p62-ZZ antagonist #3 were performed 5 to determine the toxicity, multiple doses MTD and plasma concentration of the antagonist given IV. For the pilot PK study the prototype p62-ZZ antagonist (compound #3) was used as an internal standard for Mass spectroscopy assays.

[5] = tested on: CD138(+) primary myeloma cells; assay: CD138(+) primary myeloma cell proliferation, MTT assay; type: cell-based, human; conditions: 48 h, FIG. 4B
Procedure: as §1

[6] = In vivo toxicity, single dose and multidose MTD study
Procedure: as §2, §3

[7] = tested on: p62 knockout OCL precursors; assay: OCL formation by p62-/- mouse osteoclast precursors, TRACP stain; type: cell-based; conditions: 7 days, 50 ng/ml TNFα
Procedure: FIG. 7A-C: 7A. CFU-Blast colony formation. Human CD34(+) cells were cultured with p62-ZZ inhibitor #3 and 1 ng/ml of rhIL-3 IL-6 and SCF for 7 days. Data are shown as the mean±SD (n=5). FIG. 7B. Human OCL formation. Non-adherent mononuclear cells (2.5×10^7 cells/10-cm dish) derived from human bone marrow samples were cultured in α-MEM containing 10% FCS, 100 pg/ml recombinant human GM-CSF(R & D) for 7 days. Then the cells were collected and plated (cell density is 1.0×10^6 cells/nil) in α-MEM containing 20% horse serum with 1 ng/ml TNFα. Half-media changes were performed twice a week containing various concentrations of the p62-ZZ inhibitor #3. The cultures were incubated for a total of 2 weeks at 37° C. with 5% CO2 and 95% humidity. The osteoclasts were stained with the 23C6 antibody which recognizes CD51/61. Data are shown as the mean±SD (n=5). *P<0.01 compared to vehicle treated cultures. 7C. OCL formation by wild type and p62−/− mouse osteoclast precursors. Data is shown as the mean±SD (n=4). *: P<0.01 compared to no-inhibitor cultures. The effects of p62-ZZ inhibitor #3 on osteoclast formation by p62^−/− OCL precursors were examined to determine the specificity of the effects of the p62-ZZ inhibitor #3 on osteoclast precursors. CDIIb(+) mononuclear cells from wild type and p62″/_mice were used. […] OCLs were scored as TRAP positive cells containing 3 or more nuclei. […]

## OCCNCc1ccc(OCc2ccccc2)c(OCc2ccccc2)c1 [Compound 3, 2-[[3,4-bis(phenylmethoxy)phenyl]methylamino]ethanol]
[1]
  toxicity to regular stromal cells: low toxicity
[1]; 10 μM, 48 hours
  proliferation of stromal cells by MTT assay: did not change proliferation
[2]
  TNF-α induced PKCζ phosphorylation in stromal cells: blocked
[3]; marrow stromal cells, 3 h pre-treatment, TNFα 48 hours
  IL-6 production induced by TNF-α blocked compared to vehicle: 90%
[3]; normal human stromal cells, FIG. 5B
  IL-6 production by TNF-α stimulated normal human stromal cells (result in words): blocked IL-6 production
[4]
  half-life: 4 h
[5]
  growth of CD138(+) primary myeloma cells (result in words): directly inhibited
[6]; doses up to 100 mg/kg, single dose or qdx5/day, up to 20 days
  effect on body weight: no effect
[6]; mice of the in vivo studies
  gross pathology of brain, liver, kidney tissue: no gross pathology
[7]
  OCL formation by p62 knockout OCL precursors: did not block
